COC(=O)[C@H](N)c1ccccc1.Cl
solubility (mole fraction)
Settings	in acetone	in ethanol	in ethyl acetate	in methanol	in toluene	in water
283.15 K	1.3e-05	0.015	3.9e-05	0.076	9e-06	0.045
293.15 K	3.6e-05	0.022	8.5e-05	0.081	1.5e-05	0.058
303.15 K	7.8e-05	0.028	0.00015	0.085	2.3e-05	0.068
313.15 K	0.00013	0.033	0.00021	0.09	3.3e-05	0.077
323.15 K	0.00018	0.037	0.00025	0.096	4.4e-05	0.086
333.15 K	0.00025	0.042	0.00029	0.1	5.6e-05	0.095
